Measurements taken from US20250115654A1, “PHARMACEUTICAL COMPOSITION OF GLP-1 RECEPTOR AND GIP RECEPTOR DUAL AGONIST, AND USE THEREOF” (FUJIAN SHENGDI PHARMACEUTICAL CO., LTD., priority 2021, published 2025).
Where two headings read alike, the source gives them in different places. Numbered stars: 1 amine (or outer) side, 2 acyl side, 3 side chain; on linkers, the order of the positions; unused ones are H or OH. Square brackets hold non-standard residues; d marks the D form. Side chains are listed from the residue outwards. Peptide text beside a SMILES is read from it. * marks the point of attachment. C20 diacid = O=C(O)CCCCCCCCCCCCCCCCCCC(=O)*; γGlu = O=C(O)[C@H](CCC(=O)[*:2])N[*:1]; AEEA = NCCOCCOCC(=O)O; Aib = CC(C)(N)C(=O)O

Legend:
[1] = molecular target: T1, human GIPR (Homo sapiens, UniProt P48546); experiment: Agonist activity against GIPR, cAMP HTRF in CHO-K1 cells transiently transfected with hGIP receptor; type: cell-based
T1 construct: expressed in transfected cells; host or cells: wild-type CHO-K1, transient transfection with hGIP receptor plasmid (Fugene HD)
T1 sequence (P48546 22-466): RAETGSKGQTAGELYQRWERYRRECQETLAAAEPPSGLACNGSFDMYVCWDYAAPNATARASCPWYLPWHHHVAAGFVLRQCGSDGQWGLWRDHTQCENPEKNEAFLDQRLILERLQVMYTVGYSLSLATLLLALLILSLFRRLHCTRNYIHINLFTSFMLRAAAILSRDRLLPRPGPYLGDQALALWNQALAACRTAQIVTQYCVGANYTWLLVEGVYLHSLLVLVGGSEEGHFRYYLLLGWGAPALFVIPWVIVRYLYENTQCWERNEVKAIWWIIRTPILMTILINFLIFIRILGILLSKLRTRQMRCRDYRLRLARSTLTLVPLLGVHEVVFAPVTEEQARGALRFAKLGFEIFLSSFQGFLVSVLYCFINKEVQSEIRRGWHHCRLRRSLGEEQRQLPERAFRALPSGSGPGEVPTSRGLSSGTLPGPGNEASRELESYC
Experimental: Wild-type CHO-K1 cells were collected, and the cell suspension was adjusted to an appropriate density, seeded in a 6-well plate at 2 mL/well, and placed in an incubator at 37° C. with 5% CO2 for adherence culture overnight.

[2] = molecular target: human GLP-1R (Homo sapiens, UniProt P43220); experiment: Agonist activity against GLP-1R, cAMP HTRF in CHO-K1/GLP-1R/CRE-luc stable cells
[3] = Stability of compounds in human plasma (LC-MS); type: in vitro ADME
Experimental: 5 μL of each of samples at concentrations of 20 ng/mL, 50 ng/mL, 100 ng/mL, 200 ng/mL, 500 ng/mL, 1000 ng/mL, 2000 ng/mL, 5000 ng/mL, and 10000 ng/mL was added to 45 L of human plasma. The content of the compounds in the samples was determined by the LC-MS method and a standard curve was formed. 5 μL of a 1 mg/mL polypeptide solution was added to 45 μL of human plasma. […] With the content at 0 min as the standard (100%), the relative content of the retained compounds in the samples at other time points was calculated.

[4] = Pharmacokinetics in Balb/c mice after a single intravenous injection; type: in vivo; settings: male, mouse, mice plasma, 30 nmol/kg
Experimental: (§1) Male Balb/c mice weighing 18-30 g and aged 7-9 weeks were purchased from Shanghai Jiesijie Laboratory Animal Co., Ltd. After compound 7 #was prepared in a buffer containing 20 mM citric acid (pH=7.0), compound 7 #was intravenous injected into mice at a dose of 30 nmol/kg body weight via tail vein, and 0.2 mL of blood was separately collected at time points of 0 h, 0.083 h, 0.25 h, 0.5 h, 1 h, 2 h, 4 h, 6 h, 8 h, 24 h, and 32 h. The collected blood of mice was centrifuged at 6000 rpm for 6 min at 4° C. to separate the plasma. The content of compound 7 #in plasma of mice was assayed by the experimental procedures of Example 3.3.

[5] = Pharmacokinetics in Balb/c mice after a single subcutaneous injection; type: in vivo; settings: male, mouse, sc, mice plasma, 30 nmol/kg
Experimental: as §1, with “subcutaneously” for “intravenous”, “left side of abdomen,” for “tail vein,”, “5.2.” for “3.3.”

[6] = system: normal mice; experiment: Blood glucose in normal mice after a single subcutaneous administration and intraperitoneal glucose; type: in vivo, C57BL/6 mice; settings: 10 nmol/kg sc; for Blood glucose (mmol/L, mean ± SD): glucose ip 18 h later
Experimental: 18 h later, a glucose solution at a concentration of 0.2 g/mL was intraperitoneally injected. Blood glucose values were measured by collecting blood from the tail of mice at time points of 0 min, 15 min, 30 min, 60 min, and 120 min according to the experimental design. The specific procedures were as follows: the mouse was physically immobilized with the tail exposed, a little part was cut off at the tail end, then the tail was squeezed to bleed, and blood glucose was determined using a Roche active glucometer after the 1st drop of blood was discarded. The area under the blood glucose curve (AUC) was calculated from the results of all time points.

[7] = system: diet-induced-obesity mice; experiment: Body weight of diet-induced-obesity mice, subcutaneous administration once every 3 days; type: in vivo, C57BL/6 mice; settings: for Body weight change (%, mean ± SD): 10 nmol/kg
[8] = molecular target: T2, human glucose-dependent insulinotropic polypeptide receptor (GIPR) (human) (UniProt P48546)
T2 sequence: T1 sequence (P48546 22-466)

[9] = molecular target: human glucagon-like peptide-1 receptor (GLP-1R) (human, UniProt P43220); experiment: cell-based or functional assay
[10] = molecular target: T3, human glucose-dependent insulinotropic polypeptide receptor (GIPR) (human, UniProt P48546); experiment: cell-based or functional assay
T3 sequence: T1 sequence (P48546 22-466)

human GLP-1R, sequence (P43220 24-463): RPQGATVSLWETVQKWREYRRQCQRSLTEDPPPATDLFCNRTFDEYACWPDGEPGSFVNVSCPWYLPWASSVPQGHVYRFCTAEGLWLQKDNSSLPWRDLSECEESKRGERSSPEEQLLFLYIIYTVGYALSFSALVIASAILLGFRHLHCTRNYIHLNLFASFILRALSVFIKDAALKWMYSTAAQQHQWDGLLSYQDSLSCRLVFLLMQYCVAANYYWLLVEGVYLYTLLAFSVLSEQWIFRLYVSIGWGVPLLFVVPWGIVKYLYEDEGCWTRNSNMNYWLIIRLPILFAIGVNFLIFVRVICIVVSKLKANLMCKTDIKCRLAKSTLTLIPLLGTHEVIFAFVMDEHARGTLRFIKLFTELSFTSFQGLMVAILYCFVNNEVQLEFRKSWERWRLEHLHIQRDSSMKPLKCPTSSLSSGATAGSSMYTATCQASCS

CC[C@H](C)[C@H](NC(=O)[C@H](CCCCN)NC(=O)[C@H](CCC(=O)O)NC(=O)[C@H](CCCCNC(=O)COCCOCCNC(=O)COCCOCCNC(=O)CC[C@H](NC(=O)CCCCCCCCCCCCCCCCCCC(=O)O)C(=O)O)NC(=O)[C@H](Cc1ccc(O)cc1)NC(=O)[C@@H](NC(=O)[C@H](CO)NC(=O)[C@H](Cc1ccc(O)cc1)NC(=O)[C@H](CC(=O)O)NC(=O)[C@H](CO)NC(=O)[C@@H](NC(=O)[C@H](Cc1ccccc1)NC(=O)[C@@H](NC(=O)CNC(=O)[C@H](CCC(=O)O)NC(=O)C(C)(C)NC(=O)[C@@H](N)Cc1ccc(O)cc1)[C@@H](C)O)[C@@H](C)O)[C@@H](C)CC)C(=O)N[C@@H](C)C(=O)N[C@@H](C)C(=O)N[C@@H](CCC(N)=O)C(=O)N[C@@H](CCC(=O)O)C(=O)N[C@@H](Cc1ccccc1)C(=O)N[C@H](C(=O)N[C@@H](CC(N)=O)C(=O)N[C@@H](Cc1c[nH]c2ccccc12)C(=O)N[C@@H](CC(C)C)C(=O)N[C@H](C(=O)N[C@@H](C)C(=O)NCC(=O)NCC(=O)N1CCC[C@H]1C(=O)N[C@@H](CO)C(=O)N[C@@H](CO)C(=O)NCC(=O)N[C@@H](C)C(=O)N1CCC[C@H]1C(=O)N1CCC[C@H]1C(=O)N1CCC[C@H]1C(=O)N[C@@H](CO)C(N)=O)[C@@H](C)CC)[C@@H](C)CC [Compound 14] (H-Y[Aib]EGTFTSDYSIYK([AEEA-AEEA-γGlu-C20 diacid])EKIAAQEFINWLIAGGPSSGAPPPS-NH2)
EC50 ([1]; Table 6 run, read-out: Activity against human GIPR (EC50 nM)): 0.13 nM | EC50 [2]: 0.013 nM

CC[C@H](C)[C@H](NC(=O)[C@H](CCCCN)NC(=O)[C@H](CC(=O)O)NC(=O)[C@H](CCCCNC(=O)COCCOCCNC(=O)COCCOCCNC(=O)CC[C@H](NC(=O)CCCCCCCCCCCCCCCCCCC(=O)O)C(=O)O)NC(=O)[C@H](Cc1ccc(O)cc1)NC(=O)[C@@H](NC(=O)[C@H](CO)NC(=O)[C@H](Cc1ccc(O)cc1)NC(=O)[C@H](CC(=O)O)NC(=O)[C@H](CO)NC(=O)[C@@H](NC(=O)[C@H](Cc1ccccc1)NC(=O)[C@@H](NC(=O)CNC(=O)[C@H](CCC(=O)O)NC(=O)C(C)(C)NC(=O)[C@@H](N)Cc1ccc(O)cc1)[C@@H](C)O)[C@@H](C)O)[C@@H](C)CC)C(=O)N[C@@H](C)C(=O)N[C@@H](C)C(=O)N[C@@H](CCC(N)=O)C(=O)N[C@@H](CCC(=O)O)C(=O)N[C@@H](Cc1ccccc1)C(=O)N[C@H](C(=O)N[C@@H](CC(N)=O)C(=O)N[C@@H](Cc1c[nH]c2ccccc12)C(=O)N[C@@H](CC(C)C)C(=O)N[C@@H](CC(C)C)C(=O)N[C@@H](C)C(=O)NCC(=O)NCC(=O)N1CCC[C@H]1C(=O)N[C@@H](CO)C(=O)N[C@@H](CO)C(=O)NCC(=O)N[C@@H](C)C(=O)N1CCC[C@H]1C(=O)N1CCC[C@H]1C(=O)N1CCC[C@H]1C(=O)N[C@@H](CO)C(N)=O)C(C)C [Compound 7#] (H-Y[Aib]EGTFTSDYSIYK([AEEA-AEEA-γGlu-C20 diacid])DKIAAQEFVNWLLAGGPSSGAPPPS-NH2)
EC50 [1]: 0.11 nM | Relative content of compounds retained in plasma (%) ([3]; 0 min (standard 100%)): 100.00% | remaining at 0.5 h, 0.1 mg/mL ([3]; human, 30 min, read-out: Relative content of compounds retained in plasma (%)): 101% | remaining at 1 h, 0.1 mg/mL ([3]; human, 60 min, read-out: Relative content of compounds retained in plasma (%)): 102% | remaining at 2 h, 0.1 mg/mL ([3]; human, 120 min, read-out: Relative content of compounds retained in plasma (%)): 103% | remaining at 4 h, 0.1 mg/mL ([3]; human, 240 min, read-out: Relative content of compounds retained in plasma (%)): > 90% | AUC(0-inf) [4]: 16100 ng·h/mL | half-life [4]: 13 h | AUC(0-inf) [5]: 14500 ng·h/mL | half-life [5]: 10.1 h | reduction of area under the blood glucose curve compared with placebo [6]: more than 60% | AUC (area under the blood glucose curve) ([6]; 0-120 min): 10.7 ± 1.8 mmol·h/L | Blood glucose (mmol/L, mean ± SD) ([6]; 0 min): 4.4 ± 0.8 mmol/L | Blood glucose (mmol/L, mean ± SD) ([6]; 15 min): 6.7 ± 0.8 mmol/L | Blood glucose (mmol/L, mean ± SD) ([6]; 30 min): 6.2 ± 1.3 mmol/L | Blood glucose (mmol/L, mean ± SD) ([6]; 60 min): 5.7 ± 1.2 mmol/L | Blood glucose (mmol/L, mean ± SD) ([6]; 120 min): 3.8 ± 1.1 mmol/L | Body weight change (%, mean ± SD) ([7]; Day 1): 0% | Body weight change (%, mean ± SD) ([7]; Day 4): −11.0 ± 1.0% | Body weight change (%, mean ± SD) ([7]; Day 7): −17.6 ± 2.6% | Body weight change (%, mean ± SD) ([7]; Day 10): −22.6 ± 5.9% | Body weight change (%, mean ± SD) ([7]; Day 13): −22.3 ± 6.3% | Body weight change (%, mean ± SD) ([7]; Day 16): −22.7 ± 6.9% | Body weight change (%, mean ± SD) ([7]; Day 19): −25.9 ± 6.2% | Body weight change (%, mean ± SD) ([7]; Day 22): −23.9 ± 5.6% | Body weight change (%, mean ± SD) ([7]; Day 25): −23.9 ± 5.6% | Body weight change (%, mean ± SD) ([7]; Day 28): −25.5 ± 5.3% | body weight-reducing effect on high-fat food-induced-obesity mice ([7]; doses of 3, 10 and 100 nmol/kg): significant body weight-reducing effect

LY3298176 (peptide)
Activity against human GIPR (EC50 nM); cAMP, HTRF [8]: 0.031 nM

H-Y[Aib]EGTFTSDYSIYK([AEEA-AEEA-γGlu-C20‑OH])DKIAAQEFVNWLLAGGPSSGAPPPS-NH2 [compound 7# H-YAibEGTFTSDYSIYK(OEG-OEG-yGlu-C20-OH)DKIAAQEFVNWLLAGGPSSGAPPPS-NH2]
Activity against human GLP-1R (EC50 nM); cAMP, HTRF [9]: 0.021 nM | Activity against human GIPR (EC50 nM); cAMP, HTRF [10]: 0.11 nM
